Results from patent publication US12070509B2, “Nucleic acids and methods of treatment for cystic fibrosis” (Arcturus Therapeutics, Inc., priority 2020, dated 2024).

Molecular target: T1, CFTR channels (Homo sapiens, UniProt P13569)
T1 construct: 1835; Cap1; TEV; Yes; XBG; 53; expressed in transfected cells; host or cells: FRT (Fischer rat thyroid) cells in air-liquid interface culture, transfected with unformulated hCFTR mRNA
Experiment: Transepithelial conductance (Gt) in Air-Liquid Interface culture of transfected FRT cells
Type: cell-based
Conditions: FRT cells transfected with constructs 2099.1 and 1835.1 (FIG. 12); sequential Forskolin, VX770, Inh-172
Protocol: Further studies were conducted to assess the activity of hCFTR proteins expressed by selected mRNA constructs and whether these can properly open and close to allow proper ion transport. In these studies, an Air-Liquid Interface (ALI) cell culture model of FRT cells was used to transfect an unformulated subset of codon-optimized hCFTR mRNAs at different doses ranging from 0.5 μg-2 μg of mRNA (the 2 μg dose is not shown) into the FRT cells. ALI is a method of cell culture by which polarized cells are generated with their basal surfaces in contact with media, and the top of the cellular layer is exposed to the air. This model helps to mimic the cellular structure of in vivo airways.
At 24 hours post-transfection, transepithelial conductance (Gt) of the cells over time was measured as an indicator of CFTR activity. Initially, Gt was measured with the transfected or control cells unperturbed. Then, a sequential process of CFTR activation (channel opening), enhancement (gating promotion) and closing of the CFTR channels was performed. The hCFTR constructs used in this study were 1835.1 (SEQ ID NO: 53), 2093.1 (SEQ ID NO: 66), 2095.1 (SEQ ID NO: 68), 2096.1 (SEQ ID NO: 69), and 2099.1 (SEQ ID NO: 72). In addition, controls were performed using a reference sequence of construct 764.1 (SEQ ID NO: 47) and untransfected cells. […]

T1 sequence (P13569 whole entry): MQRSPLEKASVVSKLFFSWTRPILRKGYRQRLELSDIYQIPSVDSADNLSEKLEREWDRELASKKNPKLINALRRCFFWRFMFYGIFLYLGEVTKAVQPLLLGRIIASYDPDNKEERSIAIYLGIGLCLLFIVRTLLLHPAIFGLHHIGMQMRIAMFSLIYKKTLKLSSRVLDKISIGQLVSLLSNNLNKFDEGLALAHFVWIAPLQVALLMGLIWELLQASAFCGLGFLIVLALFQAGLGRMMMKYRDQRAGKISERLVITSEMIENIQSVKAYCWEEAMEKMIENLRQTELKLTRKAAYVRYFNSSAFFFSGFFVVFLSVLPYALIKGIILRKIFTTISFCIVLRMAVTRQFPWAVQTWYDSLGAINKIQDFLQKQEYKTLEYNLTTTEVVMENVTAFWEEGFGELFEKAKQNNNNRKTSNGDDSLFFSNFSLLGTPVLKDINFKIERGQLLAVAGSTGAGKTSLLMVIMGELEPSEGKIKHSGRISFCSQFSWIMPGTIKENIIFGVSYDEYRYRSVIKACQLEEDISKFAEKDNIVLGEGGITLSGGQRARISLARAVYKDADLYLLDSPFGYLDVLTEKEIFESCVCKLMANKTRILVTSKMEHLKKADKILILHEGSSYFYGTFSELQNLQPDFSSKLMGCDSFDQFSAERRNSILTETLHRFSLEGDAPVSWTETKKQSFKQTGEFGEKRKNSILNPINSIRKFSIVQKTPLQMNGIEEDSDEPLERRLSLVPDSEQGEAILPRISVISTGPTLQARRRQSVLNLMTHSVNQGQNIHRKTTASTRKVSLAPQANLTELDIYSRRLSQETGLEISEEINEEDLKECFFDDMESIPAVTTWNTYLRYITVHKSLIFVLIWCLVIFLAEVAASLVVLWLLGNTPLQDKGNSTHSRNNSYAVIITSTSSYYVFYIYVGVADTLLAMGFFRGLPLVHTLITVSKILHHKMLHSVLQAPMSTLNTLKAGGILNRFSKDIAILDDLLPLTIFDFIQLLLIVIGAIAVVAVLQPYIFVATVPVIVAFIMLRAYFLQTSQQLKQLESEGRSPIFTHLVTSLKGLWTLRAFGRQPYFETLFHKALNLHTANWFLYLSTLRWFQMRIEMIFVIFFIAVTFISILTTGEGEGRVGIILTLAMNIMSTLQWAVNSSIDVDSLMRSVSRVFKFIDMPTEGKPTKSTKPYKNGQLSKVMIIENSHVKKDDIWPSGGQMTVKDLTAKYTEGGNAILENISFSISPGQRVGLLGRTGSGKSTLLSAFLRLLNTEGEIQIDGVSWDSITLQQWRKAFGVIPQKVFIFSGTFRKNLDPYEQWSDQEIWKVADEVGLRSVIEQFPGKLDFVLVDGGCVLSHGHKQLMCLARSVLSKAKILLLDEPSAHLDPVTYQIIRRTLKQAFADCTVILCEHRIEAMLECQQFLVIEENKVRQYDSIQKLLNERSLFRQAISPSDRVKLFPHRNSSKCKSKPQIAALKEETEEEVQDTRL

Row | SMILES | Change in Gt on introduction of CFTR modulator
1 | CC(C)(C)c1cc(C(C)(C)C)c(NC(=O)c2c[nH]c3ccccc3c2=O)cc1O [VX770, reference compound] | second increase in Gt
2 | O=C(O)c1ccc(C=C2SC(=S)N(c3cccc(C(F)(F)F)c3)C2=O)cc1 [Inh-172, reference compound] | decline in Gt
